Measurements as given in EP4755888A1 (ILAb Co., Ltd., priority 2023, dated 2025).
Where two headings read alike, the source gives them in different places.

Experiments:
PD-1/PD-L1 [1] = target: PD-1/PD-L1 (Homo sapiens, UniProt Q9NZQ7); test: TR-FRET PD-1/PD-L1 binding inhibition at the molecular level (free proteins)
Outline: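 HTRF read-out at 665/620 nm after 2 h at room temperature. Detection used anti-Tag1 Eu cryptate plus anti-Tag2 XL665 antibodies. Tagged PD-L1 and PD-1 proteins were pre-mixed with compound across twelve […] 1:2 dilutions starting at 200 nM.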

PD-1/PD-L1 [2] = test: PD-1/PD-L1 blockade bioassay at the cellular level (PD-L1 aAPC/CHO-K1 cells + PD-1 Effector T cells, luciferase); format: cell-based; conditions: Homo sapiens, T-cell; PD-L1 aAPC/CHO-K1 cells with PD-1 Effector T cells, 6 hours, luminescence; read-out: PD-1/PD-L1 Inhibitory Activity EC50
Experimental: In order to evaluate the effect of the compounds of the present invention, synthesized according to the above Preparation Examples, on blocking signal transduction between PD-1/PD-L1-expressing cells, a PD-1/PD-L1 blockade bioassay was conducted as described below.
Specifically, PD-L1 aAPC/CHO-K1 cells engineered to express human PD-L1 were seeded into a 96-well white plate and cultured for one day. On the following day, the compounds were prepared in a 96-well plate by serial dilution at concentrations starting from 10 µM and 5 µM, followed by 1/4 dilutions to obtain a total of ten concentrations. The culture medium in the plate seeded with the PD-L1 aAPC/CHO-K1 cell line was removed, and 40 µL of each prepared compound solution was added to a 96-well plate. Thereafter, 40 µL of PD-1 Effector T cell line engineered to express human PD-1 was additionally added, and then cultured for 6 hours. After 6 hours, 80 µL of Bio-Glo luciferase buffer was added to each well, followed by incubation at room temperature for 10 minutes, and luminescence was measured using a microplate reader.

[3] = target: T1, PD-L1 expressed on the cell surface (MC38 hPD-L1) (Homo sapiens, UniProt Q9NZQ7); test: Internalization of cell surface PD-L1, flow cytometry with fluorescent staining; format: cell-based; conditions: MC38 hPD-L1 cells, 1 µM, 4 hours; untreated 90% to 99%
T1 construct: expressed in transfected cells; host or cells: MC38 mouse colon cancer cell line expressing human PD-L1
Experimental: In order to evaluate the internalization of cell surface PD-L1 induced by the compounds of the present invention synthesized according to the above Preparation Examples, a flow cytometry experiment using fluorescent staining was conducted as described below.
Specifically, a mouse colon cancer cell line expressing human PD-L1 (MC38 hPD-L1) was seeded into a 24-well plate at a density of 5 x 10^5 cells per well, followed by treatment with Compounds 206 to 227 at a concentration of 1 µM and incubation for 4 hours. After 4 hours, the compound-treated MC38 hPD-L1 cells were collected and stained with PE anti-hPD-L1 fluorecence at room temperature for 30 minutes. The rate of PD-L1 expression on the cell surface was then quantified using flow cytometry.

hPD-L1 = hPD-L1 (Homo sapiens, UniProt Q9NZQ7); test: TR-FRET dimerization of hPD-L1 molecules; format: biochemical; conditions: for EC50: Fc tag-hPD-L1 and His tag-hPD-L1, twelve concentrations from 10 µM; for induction of dimerization of hPD-L1 molecules (in words): summary of Table 3
Experimental: In order to evaluate the dimerization of hPD-L1 molecules induced by the compounds of the present invention synthesized according to the above Preparation Examples, a TR-FRET (Time-Resolved Fluorescence Energy Transfer) experiment was performed as described below.
Specifically, the compounds were prepared in a 96-well plate by serial dilution starting from 10 µM with 1/3 dilutions to obtain a total of twelve concentrations. Thereafter, 2 µL of each compound solution was added to a 384-well plate. Fc tag-hPD-L1 protein and His tag-hPD-L1 protein were each prepared at a 1x concentration, mixed at a ratio of 1:1 of above two proteins, and 8 µL of the mixed protein solution was added to each well of the 384-well plate containing the compounds, followed by incubation at room temperature for one day. On the following day, Anti-6His-Tb Cryptate Gold antibody and Anti-human IgG-XL665 antibody were each prepared at a 1x concentration, mixed at a ratio of 1:1, and 10 µL of the mixed antibody solution was added to each well of the 384-well plate containing the compounds and proteins, followed by incubation at room temperature for 2 hours. Upon completion of the reaction, fluorescence signals at wavelengths of 620 nm and 665 nm were measured using a microplate reader.

tumor = tumor growth inhibition in a group administered with the compound (FIG. 1); format: in vivo; conditions: graph of FIG. 1; group administered with Compound 218; no numbers printed in this part
MC38 hPD-L1 = test: Tumor growth inhibition in MC38 hPD-L1 subcutaneous mouse model; format: in vivo; conditions: 50 mg/kg intraperitoneally once daily, female C57BL/6 mice
Experimental: In order to evaluate whether the tumor inhibitory effects of the compounds synthesized according to the above Preparation Examples are also effective in vivo, animal experiments were conducted as described below.
A mouse colon cancer cell line expressing human PD-L1 (MC38 hPD-L1) was prepared at a density of 1.25 x 10^6 cells in 100 µL of DPBS and inoculated subcutaneously into the flank of 6-week-old female C57BL/6 mice. When the average tumor volume reached approximately 50 mm^3, the mice were divided into three experimental groups, with eight mice per group. Vehicle and Compound 218 (50 mg/kg) were administered intraperitoneally once daily, while Durvalumab (anti-PD-L1 mAb) was administered intraperitoneally twice per week. Tumor volume and body weight were measured every three days.

[4] = Tag1-PD-L1 and Tag2-PD-1 proteins, twelve concentrations from 200 nM, 2 hours at room temperature, read-out: FRET assay (IC50)

T1 sequence (Q9NZQ7 19-290): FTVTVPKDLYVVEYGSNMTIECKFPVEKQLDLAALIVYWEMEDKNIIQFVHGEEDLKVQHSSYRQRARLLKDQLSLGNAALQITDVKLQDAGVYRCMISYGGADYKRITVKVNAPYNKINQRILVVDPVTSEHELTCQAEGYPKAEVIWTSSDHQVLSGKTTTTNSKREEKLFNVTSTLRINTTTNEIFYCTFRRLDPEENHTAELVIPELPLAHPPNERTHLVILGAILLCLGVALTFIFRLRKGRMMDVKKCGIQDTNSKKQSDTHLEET
Chain of hPD-L1 (Q9NZQ7 19-238 limits assumed): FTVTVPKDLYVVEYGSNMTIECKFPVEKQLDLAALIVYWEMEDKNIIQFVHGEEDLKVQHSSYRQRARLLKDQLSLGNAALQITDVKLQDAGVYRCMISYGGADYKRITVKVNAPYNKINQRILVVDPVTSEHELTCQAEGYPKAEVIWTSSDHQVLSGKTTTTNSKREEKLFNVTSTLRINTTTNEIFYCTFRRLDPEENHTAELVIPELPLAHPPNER
Chain of hPD-L1 (Q9NZQ7 19-238 limits assumed): as above
Chain of PD-1/PD-L1 (Homo sapiens, UniProt Q9NZQ7) (Q9NZQ7 19-238 limits assumed): as above

SMILES	IC50 (PD-1/PD-L1 [1]; [4]) [nM]	EC50 (PD-1/PD-L1 [2]) [nM]	Cell surface PD-L1 expression level (%) [3] [%]	EC50 (hPD-L1) [nM]	induction of dimerization of hPD-L1 molecules (in words) (hPD-L1)	IC50 (PD-1/PD-L1 [1]; read-out: FRET assay (IC50), Tag1-PD-L1 and Tag2-PD-1 proteins, twelve concentrations from 200 nM, 2 hours at room temperature) [nM]	tumor growth inhibitory effect (tumor)	tumor growth inhibition compared to the vehicle-treated group (MC38 hPD-L1; Figure 1)	change in body weight of mice (MC38 hPD-L1; Figure 2)
O=C(Nc1cccc(-c2cccc(NC(=O)c3cc4n(n3)CCC[C@H]4NCCO)c2Cl)c1Cl)c1ccc(CNCCO)cn1 [Compound 207, (R)-N-(2,2'-dichloro-3'-(5-(((2-hydroxyethyl)amino)methyl)picolinamido)-[1,1'-biphenyl]-3-yl)-4-((2-hydroxyethyl)amino)-4,5,6,7-tetrahydropyrazolo[1,5-a]pyridine-2-carboxamide]	< 10	85.8	77.5	–	–	–	–	–	–
O=C(Nc1cccc(-c2cccc(NC(=O)c3cc4n(n3)CCC[C@@H]4N3CC[C@@H](C(=O)O)C3)c2Cl)c1Cl)c1ccc(CNCCO)cn1 [Compound 208, (R)-1-((S)-2-((2,2'-dichloro-3'-(5-(((2-hydroxyethyl)amino)methyl)picolinamido)-[1,1'-biphenyl]-3-yl)carbamoyl)-4,5,6,7-tetrahydropyrazolo[1,5-a]pyridin-4-yl)pyrrolidine-3-carboxylic acid]	< 10	12.6	0.5	–	–	–	–	–	–
Cc1c(NC(=O)c2cc3n(n2)CCC[C@@H]3N2CC[C@@H](C(=O)O)C2)cccc1-c1cccc(Nc2nc(C(F)F)nc3cc(CN4CC[C@@H](O)C4)cnc23)c1C [Compound 210, (R)-1-((S)-2-((3'-((2-(difluoromethyl)-7-(((R)-3-hydroxypyrrolidin-1-yl)methyl)pyrido[3,2-d]pyrimidin-4-yl)amino)-2,2'-dimethyl-[1,1'-biphenyl]-3-yl)carbamoyl)-4,5,6,7-tetrahydropyrazolo[1,5-a]pyridin-4-yl)pyrrolidine-3-carboxylic acid]	< 10	16	3.2	–	–	–	–	–	–
Cc1c(NC(=O)c2cc3n(n2)CCC[C@@H]3NCC(=O)O)cccc1-c1cccc(Nc2nc(C(F)F)nc3cc(CN4CC[C@@H](O)C4)cnc23)c1C [Compound 212, 2-(((S)-2-((3'-((2-(difluoromethyl)-7-(((R)-3-hydroxypyrrolidin-1-yl)methyl)pyrido[3,2-d]pyrimidin-4-yl)amino)-2,2'-dimethyl-[1,1'-biphenyl]-3-yl)carbamoyl)-4,5,6,7-tetrahydropyrazolo[1,5-a]pyridin-4-yl)amino)acetic acid]	< 10	32.3	22.1	–	–	–	–	–	–
Cc1c(NC(=O)c2ccc(CN3CC[C@@H](O)C3)cn2)cccc1-c1cccc(NC(=O)c2cc3n(n2)CCC[C@@H]3NCCO)c1C [Compound 214, (S)-4-((2-hydroxyethyl)amino)-N-(3'-(5-(((R)-3-hydroxypyrrolidin-1-yl)methyl)picolinamido)-2,2'-dimethyl-[1,1'-biphenyl]-3-yl)-4,5,6,7-tetrahydropyrazolo[1,5-a]pyridine-2-carboxamide]	< 10	40.1	5.7	–	–	–	–	–	–
Cc1c(NC(=O)c2ccc(CN3CC[C@@H](O)C3)cn2)cccc1-c1cccc(NC(=O)c2cc3n(n2)CCC[C@@H]3N2CC[C@@H](O)C2)c1C [Compound 216, (S)-4-((R)-3-hydroxypyrrolidin-1-yl)-N-(3'-(5-(((R)-3-hydroxypyrrolidin-1-yl)methyl)picolinamido)-2,2'-dimethyl-[1,1'-biphenyl]-3-yl)-4,5,6,7-tetrahydropyrazolo[1,5-a]pyridine-2-carboxamide]	< 10	31.6	3.0	25.2	effectively induced dimerization of hPD-L1 molecules at the nanomolar level	–	–	–	–
Cc1c(NC(=O)c2ccc(CN3CC[C@@H](O)C3)cn2)cccc1-c1cccc(NC(=O)c2cc3n(n2)CCC[C@H]3N2CC[C@@H](O)C2)c1C [Compound 217]	–	251	82.8	–	–	< 10	–	–	–
O=C(O)CN[C@H]1CCCn2nc(C(=O)Nc3cccc(-c4cccc(Nc5nccc6cc(CN7CC[C@@H](O)C7)cnc56)c4Cl)c3Cl)cc21 [Compound 218, 2-(((S)-2-((2,2'-dichloro-3'-((3-(((R)-3-hydroxypyrrolidin-1-yl)methyl)-1,7-naphthyridin-8-yl)amino)-[1,1'-biphenyl]-3-yl)carbamoyl)-4,5,6,7-tetrahydropyrazolo[1,5-a]pyridin-4-yl)amino)acetic acid]	< 10	19.2	0.3	6.1	effectively induced dimerization of hPD-L1 molecules at the nanomolar level	–	tumor growth inhibitory effect	significant inhibition of tumor growth	no change in body weight
O=C(O)CN[C@H]1CCCn2nc(C(=O)Nc3cccc(-c4cccc(NC(=O)c5ccc(CNCCO)cn5)c4Cl)c3Cl)cc21 [Compound 220, (S)-2-((2-((2,2'-dichloro-3'-(5-(((2-hydroxyethyl)amino)methyl)picolinamido)-[1,1'-biphenyl]-3-yl)carbamoyl)-4,5,6,7-tetrahydropyrazolo[1,5-a]pyridin-4-yl)amino)acetic acid]	< 10	13.6	0.6	–	–	–	–	–	–
O=C(O)CN[C@H]1CCCn2nc(C(=O)Nc3cccc(-c4cccc(NC(=O)c5ccc(CN6CC[C@@H](O)C6)cn5)c4Cl)c3Cl)cc21 [Compound 222, 2-(((S)-2-((2,2'-dichloro-3'-(5-(((R)-3-hydroxypyrrolidin-1-yl)methyl)picolinamido)-[1,1'-biphenyl]-3-yl)carbamoyl)-4,5,6,7-tetrahydropyrazolo[1,5-a]pyridin-4-yl)amino)acetic acid]	< 10	34.8	0.3	–	–	–	–	–	–
O=C(Nc1cccc(-c2cccc(Nc3nccc4cc(CN5CC[C@H](O)C5)cnc34)c2Cl)c1Cl)c1cc2n(n1)CCC[C@H]2N1CCC(C(=O)O)CC1 [Compound 227, 1-((R)-2-((2,2'-dichloro-3'-((3-(((S)-3-hydroxypyrrolidin-1-yl)methyl)-1,7-naphthyridin-8-yl)amino)-[1,1'-biphenyl]-3-yl)carbamoyl)-4,5,6,7-tetrahydropyrazolo[1,5-a]pyridin-4-yl)piperidine-4-carboxylic acid]	10 to 100	20.2	1.6	26.2	effectively induced dimerization of hPD-L1 molecules at the nanomolar level	–	–	–	–
